Experimental findings from patent US10927141B2 (priority 2018, dated 2021) are described below.

The nature of series [1]: Dynamic vapor sorption (DVS), gravimetric moisture sorption. The class given is physicochemical. The note with it: at 80% Relative Humidity, 25° C. The protocol: Dynamic Vapor Sorption (DVS) were collected conducted using an SMS DVS Advantage 1 system. For each sample analyzed approximately 10 mg of material was transferred into the DVS instrument and recorded the weight change with respect to the atmospheric humidity at 25° C. using the following parameters: Equilibrium dm/dt: 0.01%/min, (for min: 10 min and max: 180 min); drying setting were 0% RH for 120 min; RH (%) measurement step at 10% and RH (%) measurement step scope of 0-90-0%.

Series [2] is classed as physicochemical.
Series [3] is classed as physicochemical. The note with it: 1 w. The procedure:
For each salt, approximately 5 mg compound was added into an 8 mL glass vial with a multi-hole aluminum foil cap, and kept at 60° C., 40° C./75% RH for 1 week. […] Appearance by visual observation were recorded followed by purity assessment and XPRD data collection on the residual solids.

Like-named read-outs stand apart in the source and are kept apart here.

Turning to `COC[C@@]1(O)CC[C@@]2(C)[C@@H](CC[C@@H]3[C@@H]2CC[C@]2(C)[C@@H](C(=O)Cn4ccnc4)CC[C@@H]32)C1.O=S(=O)(O)c1ccc2ccccc2c1` [Compound 1 Napsylate (Form A)], the gravimetric moisture sorption result in series [1] is “about 3.9 % (by weight)”.
The same measure, in the same setting: with `COC[C@@]1(O)CC[C@@]2(C)[C@@H](CC[C@@H]3[C@@H]2CC[C@]2(C)[C@@H](C(=O)Cn4ccnc4)CC[C@@H]32)C1.O=C(O)C(O)C(O)C(=O)O` [Compound 1 L(+)-Tartrate (Form A)] the entry was “about 1.6 % (by weight)”; with `COCC1(O)CCC2(C)C(CCC3C2CCC2(C)C(C(=O)Cn4ccnc4)CCC32)C1.O=C(O)CC(O)C(=O)O` [Compound 1 L-Malate (Form A)], “about 2.0 % (by weight)”.
Same read-out and setting: with `COCC1(O)CCC2(C)C(CCC3C2CCC2(C)C(C(=O)Cn4ccnc4)CCC32)C1.O=C(O)c1ccc2ccccc2c1O` (stereo not drawn) the entry was “about 4.6 % (by weight)”.
On the same count and under the same terms, to `COCC1(O)CCC2(C)C(CCC3C2CCC2(C)C(C(=O)Cn4ccnc4)CCC32)C1.O=C(O)C(Cl)Cl` (stereo not drawn) [Compound 1 Dichloroacetate (Form A)] belongs “about 1.8 % (by weight)”.
For `CCS(=O)(=O)O.COCC1(O)CCC2(C)C(CCC3C2CCC2(C)C(C(=O)Cn4ccnc4)CCC32)C1` (stereo not drawn) [Compound 1 Ethanesulfonate (Form A)], in series [1], the gravimetric moisture sorption entry is “about 1.4 % (by weight)”.
Consider `COC[C@@]1(O)CC[C@@]2(C)[C@@H](CC[C@@H]3[C@@H]2CC[C@]2(C)[C@@H](C(=O)Cn4ccnc4)CC[C@@H]32)C1.O=C(O)CC(O)(CC(=O)O)C(=O)O` [Compound 1 Citrate (Form A)], for which the Final purity came to 99.5 in series [2] (1.2 million lux-hrs), 99.5 in series [2] (Dark control), 99.4 in series [3] (40° C./75% RH) and 99.5 in series [3] (60° C.). In addition, the XRPD pattern entry in series [2] (1.2 million lux-hrs), in series [2] (Dark control), in series [3] (40° C./75% RH) and in series [3] (60° C.) was “Form A” in each case. For the same molecule, in series [1], the gravimetric moisture sorption entry is recorded as “about 3.6 % (by weight)”.
As for `COCC1(O)CCC2(C)C(CCC3C2CCC2(C)C(C(=O)Cn4ccnc4)CCC32)C1.Cl` (stereo not drawn) [Compound 1 Hydrochloride (Form A)], the gravimetric moisture sorption result in series [1] is listed as “about 3.6 % (by weight)”.
Still for that read-out and setting: to `COCC1(O)CCC2(C)C(CCC3C2CCC2(C)C(C(=O)Cn4ccnc4)CCC32)C1.O=C(O)CC(O)C(=O)O` [Compound 1 L-Malate (Form B)] belongs “about 3.5 % (by weight)”.
As to `COCC1(O)CCC2(C)C(CCC3C2CCC2(C)C(C(=O)Cn4ccnc4)CCC32)C1.O=C(O)c1cc(O)ccc1O` (stereo not drawn) [Compound 1 Gentisate (Form A)], in series [1], the gravimetric moisture sorption entry is listed as “about 3.1 % (by weight)”.
Still for that read-out and setting: to `COC[C@@]1(O)CC[C@@]2(C)[C@@H](CC[C@@H]3[C@@H]2CC[C@]2(C)[C@@H](C(=O)Cn4ccnc4)CC[C@@H]32)C1.O=S(=O)(O)NC1CCCCC1` [Compound 1 Cyclamate (Form A)] belongs “about 7.3 % (by weight)”; to `COC(=O)c1ccc2c(c1)NC(=O)/C2=C(\Nc1ccc(N(C)C(=O)CN2CCN(C)CC2)cc1)c1ccccc1.CS(=O)(=O)O` [Compound 1 Mesylate (Form A)], “about 3.4 % (by weight)”.
On the same count and under the same terms, to `COCC1(O)CCC2(C)C(CCC3C2CCC2(C)C(C(=O)Cn4ccnc4)CCC32)C1.O=C(O)C(O)C(O)C(=O)O` (stereo not drawn) [Compound 1 L(+)-Tartrate (Form B)] belongs “about 1.7 % (by weight)”; to `COC[C@@]1(O)CC[C@@]2(C)[C@@H](CC[C@@H]3[C@@H]2CC[C@]2(C)[C@@H](C(=O)Cn4ccnc4)CC[C@@H]32)C1.O=S(=O)(O)CCO` [Compound 1 Isethionate (Form A)], “about 4.9 % (by weight)”.
On the same count and under the same terms, to `COCC1(O)CCC2(C)C(CCC3C2CCC2(C)C(C(=O)Cn4ccnc4)CCC32)C1.O=P(O)(O)O` (stereo not drawn) [Compound 1 Phosphate (Form A)] belongs “about 2.1 % (by weight)”; to `COC[C@@]1(O)CC[C@@]2(C)[C@@H](CC[C@@H]3[C@@H]2CC[C@]2(C)[C@@H](C(=O)Cn4ccnc4)CC[C@@H]32)C1.O=S(=O)(O)O` [Compound 1 Sulfate (Form A)], “about 6.2 % (by weight)”.
As to `COCC1(O)CCC2(C)C(CCC3C2CCC2(C)C(C(=O)Cn4ccnc4)CCC32)C1.Cc1ccc(S(=O)(=O)O)cc1` (stereo not drawn) [Compound 1 Tosylate (Form A)], in series [1], the gravimetric moisture sorption entry is recorded as “about 1.5 % (by weight)”.
Same read-out and setting: with `COC(=O)c1ccc2c(c1)NC(=O)/C2=C(\Nc1ccc(N(C)C(=O)CN2CCN(C)CC2)cc1)c1ccccc1.Cl` [Compound 1 Hydrochloride (Form B)] the entry was “about 2.9 % (by weight)”.
Regarding `COC[C@@]1(O)CC[C@@]2(C)[C@@H](CC[C@@H]3[C@@H]2CC[C@]2(C)[C@@H](C(=O)Cn4ccnc4)CC[C@@H]32)C1.O=S(=O)(O)O` [Sulfate (Form A)], the Final purity in series [2] (1.2 million lux-hrs) was 97.1; in series [2] (Dark control) it was 97.6; in series [3] (40° C./75% RH), 97.5; in series [3] (60° C.), 96.2. Besides, the XRPD patterns result in series [2] (1.2 million lux-hrs), in series [2] (Dark control), in series [3] (40° C./75% RH) and in series [3] (60° C.) was “Form A” throughout.
Regarding `COCC1(O)CCC2(C)C(CCC3C2CCC2(C)C(C(=O)Cn4ccnc4)CCC32)C1.O=CC(O)C(O)C(O)C(O)C(=O)O` [Compound 1 D-Glucuronate (Form A)], the gravimetric moisture sorption result in series [1] is “about 1.4 % (by weight)”.
`COC(=O)c1ccc2c(c1)NC(=O)/C2=C(\Nc1ccc(N(C)C(=O)CN2CCN(C)CC2)cc1)c1ccccc1.Cl` [Compound 1 Hydrochloride (Form C)]: in series [1], the gravimetric moisture sorption entry is “about 0.7 % (by weight)”.
With `COC[C@@]1(O)CC[C@@]2(C)[C@@H](CC[C@@H]3[C@@H]2CC[C@]2(C)[C@@H](C(=O)Cn4ccnc4)CC[C@@H]32)C1.O=C(O)C[C@H](O)C(=O)O` [L-Malate (Form B)], the Final purity was 97.6 in series [2] (1.2 million lux-hrs), 97.5 in series [2] (Dark control), 98.5 in series [3] (40° C./75% RH) and 97.8 in series [3] (60° C.). Also, the XRPD patterns entry in series [2] (1.2 million lux-hrs), in series [2] (Dark control) and in series [3] (60° C.) was “Form B” each time.
Consider `COC[C@@]1(O)CC[C@@]2(C)[C@@H](CC[C@@H]3[C@@H]2CC[C@]2(C)[C@@H](C(=O)Cn4ccnc4)CC[C@@H]32)C1.O=P(O)(O)O` [Phosphate (Form A)], for which the Final purity is reported as 98.9 in series [2] (1.2 million lux-hrs), 99.2 in series [2] (Dark control), 99.2 in series [3] (40° C./75% RH) and 99.2 in series [3] (60° C.). Also, the XRPD patterns entry in series [2] (1.2 million lux-hrs), in series [2] (Dark control), in series [3] (40° C./75% RH) and in series [3] (60° C.) was “Form A” throughout.
Consider `COC[C@@]1(O)CC[C@@]2(C)[C@@H](CC[C@@H]3[C@@H]2CC[C@]2(C)[C@@H](C(=O)Cn4ccnc4)CC[C@@H]32)C1.O=S(=O)(O)c1ccccc1` [Compound 1 Besylate (Form A)], for which the gravimetric moisture sorption result in series [1] was “about 4.0 % (by weight)”.
As to `COCC1(O)CCC2(C)C(CCC3C2CCC2(C)C(C(=O)Cn4ccnc4)CCC32)C1.Cl` (stereo not drawn) [Hydrochloride (Form C)], the Final purity is on record as 100.0 in series [2] (1.2 million lux-hrs), 99.2 in series [2] (Dark control), 100.0 in series [3] (40° C./75% RH) and 98.6 in series [3] (60° C.). The XRPD patterns entry in series [2] (1.2 million lux-hrs), in series [2] (Dark control), in series [3] (40° C./75% RH) and in series [3] (60° C.) was “Form C” each time.
`COCC1(O)CCC2(C)C(CCC3C2CCC2(C)C(C(=O)Cn4ccnc4)CCC32)C1.O=C1OC(C(O)CO)C(O)=C1O` (stereo not drawn) [Compound 1 Ascorbate (Form A)]: in series [1], the gravimetric moisture sorption result was “about 5.7 % (by weight)”.
Take `COCC1(O)CCC2(C)C(CCC3C2CCC2(C)C(C(=O)Cn4ccnc4)CCC32)C1.CS(=O)(=O)O` (stereo not drawn) [Mesylate (Form A)]: the Final purity in series [2] (1.2 million lux-hrs) came to 99.3; in series [2] (Dark control), 99.4; in series [3] (40° C./75% RH), 99.4; in series [3] (60° C.), 99.4. Also, the XRPD patterns entry in series [2] (1.2 million lux-hrs) was “Form A”; in series [2] (Dark control) it was “Form A”; in series [3] (40° C./75% RH) it was “Form D”; in series [3] (60° C.) it was “Form A”.
Take `COC[C@@]1(O)CC[C@@]2(C)[C@@H](CC[C@@H]3[C@@H]2CC[C@]2(C)[C@@H](C(=O)Cn4ccnc4)CC[C@@H]32)C1.O=C(O)C(=O)O` [Oxalate (Form A)]: the Final purity in series [2] (1.2 million lux-hrs) is listed as 98.2; in series [2] (Dark control), 98.9; in series [3] (40° C./75% RH), 98.4; in series [3] (60° C.) it was 98.3. Moreover, the XRPD patterns result in series [2] (1.2 million lux-hrs), in series [2] (Dark control), in series [3] (40° C./75% RH) and in series [3] (60° C.) was “Form A” in each case.
In the case of `COCC1(O)CCC2(C)C(CCC3C2CCC2(C)C(C(=O)Cn4ccnc4)CCC32)C1.Nc1ccc(C(=O)O)c(O)c1` (stereo not drawn) [Compound 1 P-Aminosalicylate (Form A)], the gravimetric moisture sorption result in series [1] is “about 4.0 % (by weight)”.
